The target in one assay is wild-type BRAF enzyme (Homo sapiens (Human), UniProt P15056). Kind of assay: RAF inhibition assay (TB-PMAP2K1 kit), wild-type BRAF. To be noted: FLUORESCEIN-MAP2K1 substrate, 60 min reaction. The format is biochemical. Here is the method:
Assay protocol: the inhibitory effects of the compounds of the present invention on the wild-type BRAF enzyme, mutant CRAF enzyme (RAF1 Y340D and Y341D) and mutant BRAF enzyme (BRAF-V600E) activity were determined according to the instructions of the TB-PMAP2K1 (PSER217/221) kit (ThermoFisher). Different RAF enzymes and substrates (FLUORESCEIN-MAP2K1) were pre-incubated with test compounds at various concentrations at room temperature for 15 min, and then the adenosine triphosphate (ATP) was added to initiate the reaction. After incubation at room temperature for 60 min, EDTA and Tb-labeled anti-pMAP2K1 [pS217/221] antibody solutions were added, and incubation was performed at room temperature for 60 min before the detection of the fluorescence values of the compounds in each group. With the vehicle group (DMSO) as the negative control and the buffer group (without RAF enzyme) as the blank control, the relative inhibitory activity percentage (i.e., the inhibition rate) of a compound at different concentrations was calculated according to the following formula:
Relative inhibitory activity percentage=1−(Compound group at various concentrations−blank control)/(negative control−blank control)*100%
The relative inhibitory activity percentages of the compounds at different concentrations were plotted against the compound concentrations, the curve was fitted according to a four-parameter model, and the IC50 value was calculated according to the following formula:
y=min+(max−min)/(1+(x/IC50)^(−Hillslope))
wherein y is the relative inhibitory activity percentage, max and min are respectively the maximum and minimum values of the fitted curve, x is the logarithm concentration of the compound, and Hillslope is the slope of the curve.

Assay [1] deals with human hepatocellular carcinoma cell HepG2 (NRAS-Q61K mutation). The experiment in a line: Cancer cell proliferation inhibition assay, HepG2. As to conditions: 72 h incubation, Cell Titer Glo. In kind it is cell-based. The text has this: (§1) The inhibitory effects of the compounds of the present invention on cancer cell proliferation were further evaluated by testing the effects of the compounds of the present invention on the growth of cancer cells.
(§2) In this example, human melanoma cell A375 (BRAF-V600E mutation, purchased from the Cell Bank of the Chinese Academy of Sciences) and human hepatocellular carcinoma cell HepG2 (NRAS-Q61K mutation, purchased from ATCC, USA) were employed.
(§3) In this example, the test compounds at various concentrations (100000 nM, 30000 nM, 10000 nM, 3000 nM, 1000 nM, 300 nM, 100 nM, 30 nM, 10 nM) were added to the above cells, and the incubation was performed for 72 h. The inhibitory activity of the compounds was tested by measuring ATP in living cells using the Cell Titer Glo Kit (Promega).
(§4) The IC50 values of the compounds of the present invention for each tested cell were determined, and the test results are as follows: […]
Background: Cellular ATP, detected with luciferase, serves as a proxy for viable cell number.

Assay [2] deals with human melanoma cell A375 (BRAF-V600E mutation). Kind of assay: Cancer cell proliferation inhibition assay, A375. To be noted: A-375, 72 h incubation, Cell Titer Glo. In kind it is cell-based.
Source text: as §1, §2, §3, §4

Sequence of wild-type BRAF enzyme (P15056 whole entry): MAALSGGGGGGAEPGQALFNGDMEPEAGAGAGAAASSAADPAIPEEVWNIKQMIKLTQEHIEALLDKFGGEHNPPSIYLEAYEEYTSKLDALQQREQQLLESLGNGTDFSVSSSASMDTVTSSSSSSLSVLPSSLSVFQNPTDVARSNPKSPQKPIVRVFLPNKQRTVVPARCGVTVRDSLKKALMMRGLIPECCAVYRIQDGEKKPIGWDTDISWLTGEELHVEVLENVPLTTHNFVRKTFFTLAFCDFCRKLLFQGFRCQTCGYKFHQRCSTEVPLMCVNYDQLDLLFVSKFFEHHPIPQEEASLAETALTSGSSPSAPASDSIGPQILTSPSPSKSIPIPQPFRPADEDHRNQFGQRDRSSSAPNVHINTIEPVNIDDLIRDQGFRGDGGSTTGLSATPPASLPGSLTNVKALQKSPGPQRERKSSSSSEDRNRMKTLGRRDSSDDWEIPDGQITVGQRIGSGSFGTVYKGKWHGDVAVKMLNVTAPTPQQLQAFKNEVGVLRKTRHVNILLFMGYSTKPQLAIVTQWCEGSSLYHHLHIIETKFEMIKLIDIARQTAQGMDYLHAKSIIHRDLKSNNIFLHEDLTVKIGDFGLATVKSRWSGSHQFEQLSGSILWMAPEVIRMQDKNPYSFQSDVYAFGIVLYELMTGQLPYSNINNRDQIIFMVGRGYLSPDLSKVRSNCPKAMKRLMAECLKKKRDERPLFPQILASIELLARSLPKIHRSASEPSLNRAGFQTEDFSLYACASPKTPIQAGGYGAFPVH

Regarding `Cc1ccc2c(C(C)Oc3ccccc3)nccc2c1NC(=O)c1csc2c(N)ncnc12` (stereo not shown) [Compound 35, 4-amino-N-(6-methyl-1-(1-phenoxyethyl)isoquinolin-5-yl)thieno[3,2-d]pyrimidine-7-carboxamide], at wild-type BRAF enzyme, the half-inhibitory concentration (IC50) came to 0.125 ± 0.0035 µM. For `Cc1ccc2c(C(=O)c3cccc(C(F)(F)F)c3)nccc2c1NC(=O)c1csc2c(N)ncnc12` [Compound 22, 4-amino-N-(6-methyl-1-(3-(trifluoromethyl)benzoyl)isoquinolin-5-yl)thieno[3,2-d]pyrimidine-7-carboxamide], the IC50 at wild-type BRAF enzyme was found to be 0.0502 ± 0.00847 µM. Consider `Cc1ccc2c(Nc3cc(Cl)ccc3F)nccc2c1NC(=O)c1cc(F)cc2c(N)ncnc12` [Compound 84, 4-amino-N-(1-((5-chloro-2-fluorophenyl)amino)-6-methylisoquinolin-5-yl)-6-fluoroquinazoline-8-carboxamide], for which the IC50 in assay [1] amounted to 0.0672 ± 0.00993 µM; in assay [2] it was 0.165 ± 0.0065 µM.

For the molecule `Cc1ccc2c(Nc3ccccc3F)nccc2c1NC(=O)c1cccc2c(N)ncnc12` [Compound 39, 4-amino-N-(1-((2-fluorophenyl)amino)-6-methylisoquinolin-5-yl)quinazoline-8-carboxamide], the values for the IC50 (in assay [1]; against wild-type BRAF enzyme) were 0.0271 ± 0.0025 µM and 0.00844 ± 0.00246 µM, respectively. For the molecule `Cc1ccc2c(Nc3cccc(Cl)c3F)nccc2c1NC(=O)c1cc(OCCN2CCOCC2)cc2c(N)ncnc12` [Compound 79, 4-amino-N-(1-((3-chloro-2-fluorophenyl)amino)-6-methylisoquinolin-5-yl)-6-(2-morpholinoethoxy)quinazoline-8-carboxamide], the IC50 in assay [1] amounted to 0.145 ± 0.0123 µM; in assay [2], 0.0722 ± 0.013 µM. For the molecule `Cc1ccc2c(C(O)c3ccc(Cl)cc3F)nccc2c1NC(=O)c1csc2c(N)ncnc12` (stereo not shown) [Compound 28, 4-amino-N-(1-((4-chloro-2-fluorophenyl)(hydroxy)methyl)-6-methylisoquinolin-5-yl)thieno[3,2-d]pyrimidine-7-carboxamide], the IC50 on wild-type BRAF enzyme is 0.00943 ± 0.00076 µM; in assay [2], 0.0988 ± 0.0102 µM. Turning to `Cc1ccc2c(Nc3cccc(Cl)c3F)nccc2c1NC(=O)c1nccc2c(N)ncnc12` [Compound 66, 4-amino-N-(1-((3-chloro-2-fluorophenyl)amino)-6-methylisoquinolin-5-yl)pyrido[3,4-d]pyrimidine-8-carboxamide], the IC50 in assay [1] was found to be 0.0461 ± 0.0096 µM; in assay [2], 0.166 ± 0.0061 µM. For `Cc1ccc2c(Nc3cccc(Cl)c3F)nccc2c1NC(=O)c1cncc2c(N)ncnc12` [Compound 69, 4-amino-N-(1-((3-chloro-2-fluorophenyl)amino)-6-methylisoquinolin-5-yl)pyrido[4,3-d]pyrimidine-8-carboxamide], the IC50 in assay [1] was 0.0496 ± 0.0097 µM; in assay [2], 0.0946 ± 0.004 µM.

Turning to `CCOc1ccc(Nc2nccc3c(NC(=O)c4cccc5c(N)ncnc45)c(C)ccc23)c(F)c1` [Compound 74, 4-amino-N-(1-((4-ethoxy-2-fluorophenyl)amino)-6-methylisoquinolin-5-yl)quinazoline-8-carboxamide], the IC50 amounted to 0.0623 ± 0.0092 µM in assay [1] and 0.0627 ± 0.0125 µM in assay [2]. As for `Cc1ccc2c(Nc3ccc(F)c(Cl)c3)nccc2c1NC(=O)c1cnc2c(N)ncnn12` [Compound 58, 4-amino-N-(1-((3-chloro-4-fluorophenyl)amino)-6-methylisoquinolin-5-yl)imidazo[2,1-f][1,2,4]triazine-7-carboxamide], the IC50 in assay [1] stood at 0.0376 ± 0.00334 µM; against wild-type BRAF enzyme, 0.0108 ± 0.00109 µM.

Regarding `Cc1ccc2c(Nc3cccc(Cl)c3F)nccc2c1NC(=O)c1cc(N2CCOCC2)cc2c(N)ncnc12` [Compound 53, 4-amino-N-(1-((3-chloro-2-fluorophenyl)amino)-6-methylisoquinolin-5-yl)-6-morpholinoquinazoline-8-carboxamide], the IC50 stood at 0.113 ± 0.00335 µM in assay [1] and 0.0777 ± 0.0023 µM in assay [2]. In the same order, the values of `Cc1ccc2c(Nc3ccc(Cl)c(CN(C)C)c3)nccc2c1NC(=O)c1cccc2c(N)ncnc12` [Compound 64, 4-amino-N-(1-((4-chloro-3-((dimethylamino)methyl)phenyl)amino)-6-methylisoquinolin-5-yl)quinazoline-8-carboxamide] are 0.0752 ± 0.0069 µM and 0.0703 ± 0.0085 µM.

Consider `Cc1ccc2c(C(O)c3cccc(C(F)(F)F)c3)nccc2c1NC(=O)c1csc2c(N)ncnc12` (stereo not shown) [Compound 23, 4-amino-N-(1-(hydroxy(3-(trifluoromethyl)phenyl)methyl)-6-methylisoquinolin-5-yl)thieno[3,2-d]pyrimidine-7-carboxamide], for which the figures for the IC50 (at wild-type BRAF enzyme; in assay [2]) were 0.0514 ± 0.00164 µM and 0.0647 ± 0.00422 µM, respectively. On to `Cc1ccc2c(Nc3ccc(CN(C)C)c(C(F)(F)F)c3)nccc2c1NC(=O)c1cnc2c(N)ncnn12` [Compound 62, 4-amino-N-(1-((4-((dimethylamino)methyl)-3-(trifluoromethyl)phenyl)amino)-6-methylisoquinolin-5-yl)imidazo[2,1-f][1,2,4]triazine-7-carboxamide], for which the values for the IC50 in assay [1] and in assay [2] were 0.0823 ± 0.0101 µM and 0.0491 ± 0.00274 µM, respectively.

Consider `Cc1ccc2c(Nc3ccc4c(c3)CN(C)CC4)nccc2c1NC(=O)c1cccc2c(N)ncnc12` [Compound 82, 4-amino-N-(6-methyl-1-((2-methyl-1,2,3,4-tetrahydroisoquinolin-7-yl)amino)isoquinolin-5-yl)quinazoline-8-carboxamide], for which the IC50 in assay [1] was 0.245 ± 0.0273 µM; in assay [2], 0.141 ± 0.0441 µM. As for `Cc1ccc2c(Nc3cccc(C#N)c3F)nccc2c1NC(=O)c1cccc2c(N)ncnc12` [Compound 83, 4-amino-N-(1-((3-cyano-2-fluorophenyl)amino)-6-methylisoquinolin-5-yl)quinazoline-8-carboxamide], the values for the half-inhibitory concentration (IC50) in assay [1] and in assay [2] were 0.0505 ± 0.00848 µM and 0.0619 ± 0.0067 µM, respectively.

Take `COc1ccc(Nc2nccc3c(NC(=O)c4cnc5c(N)ncnn45)c(C)ccc23)cc1Cl` [Compound 56, 4-amino-N-(1-((3-chloro-4-methoxyphenyl)amino)-6-methylisoquinolin-5-yl)imidazo[2,1-f][1,2,4]triazine-7-carboxamide]: the values for the IC50 in assay [1] and in assay [2] were 0.0222 ± 0.0029 µM and 0.067 ± 0.0073 µM, respectively.

For `Cc1ccc(Nc2nccc3c(NC(=O)c4cccc5c(N)ncnc45)c(C)ccc23)c(F)c1` [Compound 88, 4-amino-N-(1-((2-fluoro-4-methylphenyl)amino)-6-methylisoquinolin-5-yl)quinazoline-8-carboxamide], the IC50 was determined as 0.0702 ± 0.0098 µM in assay [1] and 0.0554 ± 0.008 µM in assay [2]. In the case of `COc1ccc(Nc2nccc3c(NC(=O)c4cccc5c(N)ncnc45)c(C)ccc23)cn1` [Compound 75, 4-amino-N-(1-((6-methoxypyridin-3-yl)amino)-6-methylisoquinolin-5-yl)quinazoline-8-carboxamide], the IC50 in assay [1] turned out to be 0.034 ± 0.0076 µM; in assay [2], 0.0677 ± 0.0151 µM.

Turning to `Cc1ccc2c(Nc3cccc(Cl)c3F)nccc2c1NC(=O)c1cc(O)cc2c(N)ncnc12` [Compound 76, 4-amino-N-(1-((3-chloro-2-fluorophenyl)amino)-6-methylisoquinolin-5-yl)-6-hydroxyquinazoline-8-carboxamide], the IC50 in assay [1] turned out to be 0.147 ± 0.0192 µM; in assay [2], 0.202 ± 0.00574 µM. For the molecule `COc1ccc(Nc2nccc3c(NC(=O)c4cccc5c(N)ncnc45)c(C)ccc23)cc1OC` [Compound 68, 4-amino-N-(1-((3,4-dimethoxyphenyl)amino)-6-methylisoquinolin-5-yl)quinazoline-8-carboxamide], the figures for the half-inhibitory concentration (IC50) in assay [1] and in assay [2] were 0.109 ± 0.0122 µM and 0.104 ± 0.0206 µM, respectively. For `Cc1ccc2c(Nc3ccc(C#N)cc3F)nccc2c1NC(=O)c1cccc2c(N)ncnc12` [Compound 78, 4-amino-N-(1-((4-cyano-2-fluorophenyl)amino)-6-methylisoquinolin-5-yl)quinazoline-8-carboxamide], in that order: 0.0564 ± 0.0058 µM and 0.0635 ± 0.0026 µM. `Cc1ccc2c(Nc3ccc4c(c3)OCCO4)nccc2c1NC(=O)c1cccc2c(N)ncnc12` [Compound 77, 4-amino-N-(1-((2,3-dihydrobenzo[b][1,4]dioxin-6-yl)amino)-6-methylisoquinolin-5-yl)quinazoline-8-carboxamide]: the figures for the IC50 in assay [1] and in assay [2] were 0.0514 ± 0.0085 µM and 0.0316 ± 0.00742 µM, respectively.

In the case of `COc1ccc(Nc2nccc3c(NC(=O)c4cnc5c(N)ncnn45)c(C)ccc23)c(F)c1` [Compound 61, 4-amino-N-(1-((2-fluoro-4-methoxyphenyl)amino)-6-methylisoquinolin-5-yl)imidazo[2,1-f][1,2,4]triazine-7-carboxamide], the results for the IC50 in assay [1] and in assay [2] were 0.0213 ± 0.00488 µM and 0.141 ± 0.00488 µM, respectively.

One may read the IC50 as the concentration needed to halve the response being measured.

The values above are taken from US20230312556A1, “ARYLAMIDE COMPOUND, PHARMACEUTICAL COMPOSITION COMPRISING SAME, AND PREPARATION METHOD THEREFOR AND USE THEREOF” (SICHUAN KELUN-BIOTECH BIOPHARMACEUTICAL CO., LTD., priority 2020, published 2023).
